What was measured:
Assay type in all cases: physicochemical
[1] = Transformation by pressing (crystal form before and after pressing); conditions: for Crystal Form after pressing: 100 mg pressed with approximately 1300 psi during 2 minutes
[2] = Transformation by heating and slurry in acetone-water mixture (20:80), form determined by XRD
Description: A sample of zolmitriptan (6 g) was placed in a glass flask with solvent and heated to reflux until the zolmitriptan dissolved. The zolmitriptan was cooled to room temperature while stirring, and left at 4° C. overnight. The mixture was filtered and the solid obtained was divided in half. One half of the solid was labeled “wet” and the other half was dried in a vacuum oven at about 60° C.-70° C. overnight and labeled as “dried.”
One third of the wet portion of each sample was separated for XRD, and marked as “_w” . One third of the dried portion of each sample was separated for XRD, and marked as “_d” . For example, “1w” refers to the wet portion of sample 1 analyzed by XRD before slurry in acetone/water, and “1d” refers to the dried portion of sample 1 analyzed by XRD before slurry in acetone/water.
The remaining two-thirds of the wet sample was weighed, placed in a glass flask containing 10 v/w of acetone:water (20:80), stirred for about 30 minutes at room temperature, and left at about 4° C. overnight. The mixture was filtered and the solid obtained was divided in half. One half was labeled “_w-ac-w.” The other half was dried in a vacuum oven at about 60° C.-70° C. overnight, and labeled “_w-ac-d.” For example, “1w-ac-w” refers to the portion of the wet sample resulting from slurry in acetone/water, while “1w-ac-d” refers to the portion of the wet sample resulting from slurry in acetone/water that was dried.
Likewise, the remaining two-thirds of the dry sample was weighed, placed in a glass flask containing 10 v/w of acetone:water (20:80), stirred for about 30 minutes at room temperature, and left at about 4° C. overnight. The mixture was filtered and the solid obtained was divided in half. One half was labeled “_d-ac-w.” The other half was dried in a vacuum oven at about 60° C.-70° C. overnight, and labeled “_d-ac-d.” For example, “1d-ac-w” refers to the portion of the dry sample resulting from slurry in acetone/water, while “1d-ac-d” refers to the portion of the dry sample resulting from slurry in acetone/water that was then dried.

[3] = Transformation of zolmitriptan crystal forms by heating in a conventional oven, form determined by XRD; conditions: for Crystal form after heating: about 1.5 to 2 hours, conventional oven, XRD
Description: Zolmitriptan (0.5 g) crystalline forms were heated in a conventional oven for a period of about 1.5 to 2 hours at different temperatures. The crystal form of the samples was determined by XRD before and after heating.

[4] = Transformation by slurry in other solvents (n-hexane, toluene, water) and drying, form determined by XRD
From the text: Similarly to example 6 Zolmitriptan samples were slurried from other solvents or solvent systems after dissolution and precipitation from a specific solvent.

[5] = Polymorphic stability when maintained at room temperature
[6] = Water, dried 63 °C under reduced pressure
[7] = immersed in 10 v/w Toluene, filtered, sucked ½ hour on Buchner
[8] = immersed in 10 v/w Water, filtered, sucked ½ hour on Buchner
[9] = immersed in 10 v/w n-Hexane, filtered, sucked ½ hour on Buchner
[10] = Toluene, dried 63 °C under reduced pressure
[11] = n-Hexane, dried 63 °C under reduced pressure

CN(C)CCc1c[nH]c2ccc(C[C@H]3COC(=O)N3)cc12 [Form O]
Crystal Form after pressing [1]: Form O
transformation to other crystal form on pressing [1]: not transform to other crystal form

CN(C)CCc1c[nH]c2ccc(C[C@H]3COC(=O)N3)cc12 [Sample 1]
Resulting Crystal Form ([2]; _d-ac-d: dried sample slurried in acetone:water (20:80), then dried in vacuum oven 60-70 °C overnight): Form A
Resulting Crystal Form ([2]; _w-ac-w: wet sample slurried in 10 v/w acetone:water (20:80), 30 min room temperature, 4 °C overnight, filtered, not dried, listed as 1w-ac-w): Form A
Resulting Crystal Form ([2]; _w: wet portion after crystallization, before slurry in acetone/water, listed as 1w): Form A

CN(C)CCc1c[nH]c2ccc(C[C@H]3COC(=O)N3)cc12 [Amorphous form]
Crystal Form after pressing [1]: Amorphous Form
transformation to other crystal form on pressing [1]: not transform to other crystal form
stability upon heating (conversion to Form A) ([3]; heated at about 60 °C to about 110 °C for about 2 hours): does not convert to Form A
Crystal form after heating ([3]; heating temp. 60 °C): Amorph
Crystal form after heating ([3]; heating temp. 100 °C): Amorph
Crystal form after heating ([3]; heating temp. 110 °C): Amorph

CN(C)CCc1c[nH]c2ccc(C[C@H]3COC(=O)N3)cc12 [Form R]
XRD sample (form after treatment) [4, 6]: Form A
XRD sample (form after treatment) [4, 7]: Form K
XRD sample (form after treatment) [4, 8]: Form A
XRD sample (form after treatment) [4, 9]: Form D
XRD sample (form after treatment) ([4]; n-Hexane, dried 63 °C under reduced pressure, listed as R): Essent.Am D

CN(C)CCc1c[nH]c2ccc(C[C@H]3COC(=O)N3)cc12 [Sample 8]
Resulting Crystal Form ([2]; _w-ac-w: wet sample slurried in 10 v/w acetone:water (20:80), 30 min room temperature, 4 °C overnight, filtered, not dried, listed as 8w-ac-w): Form K + ˜30% A
Resulting Crystal Form ([2]; _w: wet portion after crystallization, before slurry in acetone/water, listed as 8w): Form K

CN(C)CCc1c[nH]c2ccc(C[C@H]3COC(=O)N3)cc12 [Form P]
polymorphic stability (conversion to Form A) [5]: do not convert to Form A
Crystal Form after pressing [1]: Form P
transformation to other crystal form on pressing [1]: not transform to other crystal form

CN(C)CCc1c[nH]c2ccc(C[C@H]3COC(=O)N3)cc12 [Sample 4]
Resulting Crystal Form ([2]; _w-ac-w: wet sample slurried in 10 v/w acetone:water (20:80), 30 min room temperature, 4 °C overnight, filtered, not dried, listed as 4w-ac-w): Form A
Resulting Crystal Form ([2]; _w: wet portion after crystallization, before slurry in acetone/water, listed as 4w): Form A

CN(C)CCc1c[nH]c2ccc(C[C@H]3COC(=O)N3)cc12 [Sample 5]
Resulting Crystal Form ([2]; _w-ac-w: wet sample slurried in 10 v/w acetone:water (20:80), 30 min room temperature, 4 °C overnight, filtered, not dried, listed as 5w-ac-w): Form A
Resulting Crystal Form ([2]; _w: wet portion after crystallization, before slurry in acetone/water, listed as 5w): Form D

CN(C)CCc1c[nH]c2ccc(C[C@H]3COC(=O)N3)cc12 [Sample 7]
Resulting Crystal Form ([2]; _w-ac-w: wet sample slurried in 10 v/w acetone:water (20:80), 30 min room temperature, 4 °C overnight, filtered, not dried, listed as 7w-ac-w): Form K + ˜30% A
Resulting Crystal Form ([2]; _w: wet portion after crystallization, before slurry in acetone/water, listed as 7w): Form K

CN(C)CCc1c[nH]c2ccc(C[C@H]3COC(=O)N3)cc12 [Sample 2]
Resulting Crystal Form ([2]; _d-ac-w: dried sample slurried in 10 v/w acetone:water (20:80), 30 min room temperature, 4 °C overnight, filtered, not dried): Form A
Resulting Crystal Form ([2]; _d: portion dried in vacuum oven 60-70 °C overnight, before slurry in acetone/water): Form A
Resulting Crystal Form ([2]; _w-ac-d: wet sample slurried in acetone:water (20:80), then dried in vacuum oven 60-70 °C overnight): Form A
Resulting Crystal Form ([2]; _w-ac-w: wet sample slurried in 10 v/w acetone:water (20:80), 30 min room temperature, 4 °C overnight, filtered, not dried, listed as 2w-ac-w): Form A
Resulting Crystal Form ([2]; _w: wet portion after crystallization, before slurry in acetone/water, listed as 2w): Form Q

CN(C)CCc1c[nH]c2ccc(C[C@H]3COC(=O)N3)cc12 [Form G]
polymorphic stability (conversion to Form A) [5]: do not convert to Form A
XRD sample (form after treatment) [4, 10]: Form A + ˜10% K
XRD sample (form after treatment) [4, 6]: Form A
XRD sample (form after treatment) [4, 7]: Form K
XRD sample (form after treatment) [4, 8]: Form A
XRD sample (form after treatment) [4, 9]: Form D
XRD sample (form after treatment) [4, 11]: Essent.Am D
Crystal Form after pressing [1]: Form G
transformation to other crystal form on pressing [1]: not transform to other crystal form

CN(C)CCc1c[nH]c2ccc(C[C@H]3COC(=O)N3)cc12 [Form J]
polymorphic stability (conversion to Form A) [5]: do not convert to Form A
Crystal Form after pressing [1]: Form J
transformation to other crystal form on pressing [1]: not transform to other crystal form

CN(C)CCc1c[nH]c2ccc(C[C@H]3COC(=O)N3)cc12 [Form Q]
Crystal form after heating ([3]; heating temp. 60 °C): A +

CN(C)CCc1c[nH]c2ccc(C[C@H]3COC(=O)N3)cc12 [Form T]
Crystal Form after pressing [1]: Form T
transformation to other crystal form on pressing [1]: not transform to other crystal form

CN(C)CCc1c[nH]c2ccc(C[C@H]3COC(=O)N3)cc12 [Sample 3]
Resulting Crystal Form ([2]; _w-ac-w: wet sample slurried in 10 v/w acetone:water (20:80), 30 min room temperature, 4 °C overnight, filtered, not dried, listed as 3w-ac-w): Form A
Resulting Crystal Form ([2]; _w: wet portion after crystallization, before slurry in acetone/water, listed as 3w): Form G

CN(C)CCc1c[nH]c2ccc(C[C@H]3COC(=O)N3)cc12 [Form H]
polymorphic stability (conversion to Form A) [5]: do not convert to Form A
Crystal Form after pressing [1]: Form H
transformation to other crystal form on pressing [1]: not transform to other crystal form

CN(C)CCc1c[nH]c2ccc(C[C@H]3COC(=O)N3)cc12 [Sample 6]
Resulting Crystal Form ([2]; _w-ac-w: wet sample slurried in 10 v/w acetone:water (20:80), 30 min room temperature, 4 °C overnight, filtered, not dried, listed as 6w-ac-w): Form A
Resulting Crystal Form ([2]; _w: wet portion after crystallization, before slurry in acetone/water, listed as 6w): Form S

CN(C)CCc1c[nH]c2ccc(C[C@H]3COC(=O)N3)cc12 [Form S]
polymorphic stability (conversion to Form A) [5]: do not convert to Form A
XRD sample (form after treatment) [4, 10]: Form A + ˜10% K
XRD sample (form after treatment) [4, 6]: Form A
XRD sample (form after treatment) [4, 7]: Form K
XRD sample (form after treatment) [4, 8]: Form A + ˜10% D
XRD sample (form after treatment) [4, 9]: Form D
XRD sample (form after treatment) [4, 11]: Form A + ˜20% D
Crystal Form after pressing [1]: Form S
transformation to other crystal form on pressing [1]: not transform to other crystal form

CN(C)CCc1c[nH]c2ccc(C[C@H]3COC(=O)N3)cc12 [Form E]
XRD sample (form after treatment) ([4]; Toluene, dried 63 °C under reduced pressure, listed as E): Form K
XRD sample (form after treatment) ([4]; immersed in 10 v/w Water, filtered, sucked ½ hour on Buchner, listed as E): Form A
XRD sample (form after treatment) [4, 9]: Form D
XRD sample (form after treatment) ([4]; n-Hexane, dried 63 °C under reduced pressure, listed as E): Form A + ˜30% D

CN(C)CCc1c[nH]c2ccc(C[C@H]3COC(=O)N3)cc12 [Form I]
polymorphic stability (conversion to Form A) [5]: do not convert to Form A
XRD sample (form after treatment) [4, 10]: Form A
XRD sample (form after treatment) [4, 6]: Form A
XRD sample (form after treatment) [4, 7]: Form K
XRD sample (form after treatment) [4, 8]: Form A
XRD sample (form after treatment) [4, 9]: Form D
XRD sample (form after treatment) [4, 11]: Form A
Crystal Form after pressing [1]: Form I
transformation to other crystal form on pressing [1]: not transform to other crystal form

CN(C)CCc1c[nH]c2ccc(C[C@H]3COC(=O)N3)cc12 [Form K]
polymorphic stability (conversion to Form A) [5]: do not convert to Form A
XRD sample (form after treatment) [4, 10]: Form A
XRD sample (form after treatment) [4, 6]: Form A
XRD sample (form after treatment) [4, 7]: Form K
XRD sample (form after treatment) [4, 8]: Form A + ˜10% K
XRD sample (form after treatment) [4, 9]: Form D
XRD sample (form after treatment) [4, 11]: Form A
Crystal Form after pressing [1]: Form K
transformation to other crystal form on pressing [1]: not transform to other crystal form

CN(C)CCc1c[nH]c2ccc(C[C@H]3COC(=O)N3)cc12 [Form M]
Crystal Form after pressing [1]: Form M
transformation to other crystal form on pressing [1]: not transform to other crystal form

CN(C)CCc1c[nH]c2ccc(C[C@H]3COC(=O)N3)cc12 [Form D]
polymorphic stability (conversion to Form A) [5]: do not convert to Form A
Crystal Form after pressing [1]: Form D
transformation to other crystal form on pressing [1]: not transform to other crystal form

CN(C)CCc1c[nH]c2ccc(C[C@H]3COC(=O)N3)cc12 [Form F]
Crystal Form after pressing [1]: Form F
transformation to other crystal form on pressing [1]: not transform to other crystal form

From patent US20060211751A1, “Zolmitriptan crystal forms” (priority 2004, published 2006)
